Measurements reported in US9517265B2, “Methods for the prevention and/or treatment of memory impairment” (The Governing Council of the University of Toronto, priority 2010, dated 2016).
Entries after “also recorded” stand apart in the source; their conditions may differ. Read-outs that look alike come from different tables or passages of the source.

Key:
α5GABAA receptors [1] = molecular target: T1, α5GABAA receptors (Mus musculus, UniProt P22723+Q8BHJ7); assay: Fear conditioning (contextual and cued) after isoflurane anesthesia; format: in vivo, C57BL6/J mice; parameters: from tissue; host or cells: brain of living mice (behavioural tests); conditions: for effect on memory deficit after isoflurane (in words): L-655,708 given before isoflurane; for freezing score to context, short-term memory: tested 30 min after training; for freezing score to auditory tone, short-term memory: tested 90 min after conditioning; for freezing score to auditory tone, long-term memory / freezing score to context, long-term memory: tested 2 days after conditioning
Method: To prevent hypothermia during anesthesia, the floor of the chamber was warmed with a heating blanket. […] The mouse was then either returned to its home cage and allowed to recover for 24 h (24-h groups) or taken to a holding cage in an adjacent room (1-h groups). For continuity and to ensure that the experimenter who performed the fear-conditioning studies was blinded to the treatment group, mice that were allowed to recover for 24 h were placed back in a heated for 45 min before the behavioral experiments. FIGS. 1A and 1B summarize the time course of the experimental procedures. In FIG. 1A, each stage of the experimental paradigm is represented by chronological boxes and cartoons. Relative time is indicated below the boxes (t=0, start of fear conditioning training). The duration of each stage is inset at the bottom left. […] Four groups of isoflurane-treated subjects were used (1 h recovery+L-655,708; 1 h recovery+vehicle; 24 h recovery+L-655,708; 24 h recovery+vehicle). Two oxygen-control group was used (1 h recovery+L-655,708; 1 h recovery+vehicle). 10 min prior to fear conditioning, subjects were examined in the elevated plus maze (EPM). Subjects were tested for short-term memory (STM) and long-term memory (LTM) of the context and tone.
Testing of memory function was performed using two fear-conditioning paradigms. These tests study the ability of mice to learn and remember an association between an aversive stimulus (foot shock) and non-aversive or neutral stimuli (environmental context or an auditory cue). […] Each mouse was introduced to the fear conditioning chamber (50 cm wide×15 cm deep×15 cm high, Process Control Fear Conditioning Monitor GmbH 303410, Technical & Scientific Equipment Systems Inc., Chesterfield, Mo.). The chamber was illuminated with an interior overhead light (50 lx) and was equipped with a stainless steel grid floor connected to a constant-current shock generator. Each mouse was allowed to explore the chamber for 3 min before presentation of a pulsating tone (80 dB, 3600 Hz) which persisted for 30 s. The tone was followed immediately by a mild foot shock (0.7 mA for 0.5 s). The mouse was allowed to explore the chamber for a further 30 s after the shock to study post-shock freezing.
Freezing was scored using Observer software (Noldus Information Technology, Wagoningen, The Netherlands), by an experimenter who was blinded to the treatment groups. Before each new training session, the chamber was cleaned with 70% ethanol to mask and eliminate odors from the previous mouse.
Short-term memory for contextual learning was probed 30 min after training by re-exposed the mice to the same fear conditioning chamber for […]. Long-term memory for contextual learning was studied 2 days (48 h) after conditioning by re-exposing the mice to the conditioning chamber. Short-term memory for cued learning was determined 90 min after training by first allowing the mice to explore a modified chamber scented with 5% acetic acid and containing a plastic floor and cardboard walls and then after 3 min, re-presenting the tone (2-Hz pulsating tone, 80 dB, 3600 Hz) for 3 min. Non-specific freezing was measured during the exploration of the novel chamber prior to presenting the tone. Freezing scores to study recall were measured during presentation of the tone. Long-term memory for cued learning was determined by introducing the mice into the modified chamber and presenting the tone 2 days (48 h) after conditioning.

Elevated plus maze = format: in vivo, mice
Text: Anxiety levels were studied using an elevated plus maze consisting of an acrylic glass apparatus in the shape of a cross (45 cm long×7 cm wide, with a central region of 7 cm×7 cm). Two opposing arms were enclosed with opaque white plastic walls (28 cm high, closed arms), whereas the other two opposing arms were left open (open arms). […] An observer blinded to treatment group recorded the position of each mouse on the maze using Observer software. The time spent in the center and in the open and closed arms were measured over 5 min. In addition, motor activity was quantified to study locomotion.

α5GABAA receptors [2] = conditions: 1 mg/kg intraperitoneal; cited from earlier work
[3] = cited from earlier work
α5GABAARs = α5GABAARs (Mus musculus, UniProt P22723+Q8BHJ7); conditions: WT mice, cited from earlier work
[4] = tested on: α1, α2 and α3 subunit-containing GABAA receptors; conditions: 1 mg/kg intraperitoneal; cited from earlier work
α5GABAA receptors [5] = molecular target: T1, α5GABAA receptors; conditions: for memory performance of Gabra5−/− mice (in words) / effect of the anesthetic on recognition memory, wild-type mice (in words): 24 h after anesthesia
[6] = Tail-clamp withdrawal assay (MAC of isoflurane) and recovery of righting reflex; format: in vivo, mice; conditions: for time to self-right after the immobilizing dose of isoflurane: L-655,708 or vehicle pretreatment, n=9; for immobilizing dose (MAC value) of isoflurane: tail-clamp, mice pretreated with L-655,708 0.7 mg/kg s.c. (row L-655,708) or vehicle (row isoflurane), n=17
Method: The MAC value was calculated as the mean value of these two concentrations.

[7] = Isoflurane concentration in brain tissue (gas chromatography) and in expired gas; conditions: after removal from the chamber
Text: Following a designated recovery time, mice were sacrificed by cervical dislocation. The brains were rapidly removed at room temperature and placed in a gas-tight syringe containing polytetrafluoroethylene beads. The whole brain was immediately crushed with two strokes of the plunger and the syringe was then sealed. […] The methods are similar to that described for measurement of inhaled anesthetics in blood.^26

[8] = Analysis of blood gases during isoflurane anesthesia; format: in vivo, mice; conditions: for pH: n = 6
Text: A needle was carefully inserted into the heart and blood was extracted into a heparinized syringe. The collected blood was immediately placed on ice and transported to a blood gas analyzer (ABL 700 series, Radiometer, Copenhagen, Denmark).

[9] = trained 1 h after isoflurane (1 MAC, 1 h), L-655,708 0.7 mg/kg s.c. or vehicle 10 min before isoflurane
[10] = trained 24 h after isoflurane, L-655,708 0.7 mg/kg s.c. or vehicle before isoflurane
[11] = 1 h Iso, vehicle (row isoflurane) or L-655,708
[12] = 24 h Iso, vehicle (row isoflurane) or L-655,708
[13] = high-dose experiment: isoflurane + vehicle injection (row isoflurane) or + L-655,708 0.7 mg/kg 30 min before training

T1 sequence (Q8BHJ7 32-463 limits assumed): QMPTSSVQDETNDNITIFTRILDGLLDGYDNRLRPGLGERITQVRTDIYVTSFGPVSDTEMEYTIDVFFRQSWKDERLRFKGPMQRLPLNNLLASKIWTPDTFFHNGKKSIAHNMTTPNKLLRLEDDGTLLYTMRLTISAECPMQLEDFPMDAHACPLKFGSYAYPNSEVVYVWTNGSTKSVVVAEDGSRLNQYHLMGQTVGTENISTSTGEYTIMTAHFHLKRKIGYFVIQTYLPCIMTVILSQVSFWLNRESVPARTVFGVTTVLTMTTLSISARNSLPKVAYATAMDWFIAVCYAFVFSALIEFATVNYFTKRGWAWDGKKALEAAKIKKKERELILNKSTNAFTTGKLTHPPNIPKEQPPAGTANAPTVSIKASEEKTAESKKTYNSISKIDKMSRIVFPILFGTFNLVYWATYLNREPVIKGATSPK
T1 sequence (P63080 26-473 partner): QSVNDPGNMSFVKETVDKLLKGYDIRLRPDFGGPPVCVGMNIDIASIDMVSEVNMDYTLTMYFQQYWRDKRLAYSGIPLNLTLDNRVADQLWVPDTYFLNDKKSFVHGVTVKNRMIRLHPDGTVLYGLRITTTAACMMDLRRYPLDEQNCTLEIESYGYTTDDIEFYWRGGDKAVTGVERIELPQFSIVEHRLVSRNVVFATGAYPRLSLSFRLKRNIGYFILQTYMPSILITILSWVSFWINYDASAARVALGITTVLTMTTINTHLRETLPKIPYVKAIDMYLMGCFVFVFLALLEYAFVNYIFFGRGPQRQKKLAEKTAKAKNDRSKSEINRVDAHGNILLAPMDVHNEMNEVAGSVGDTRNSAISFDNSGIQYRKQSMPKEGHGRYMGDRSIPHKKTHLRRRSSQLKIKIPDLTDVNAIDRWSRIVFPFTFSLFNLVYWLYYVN
T1 sequence (P22723 39-474): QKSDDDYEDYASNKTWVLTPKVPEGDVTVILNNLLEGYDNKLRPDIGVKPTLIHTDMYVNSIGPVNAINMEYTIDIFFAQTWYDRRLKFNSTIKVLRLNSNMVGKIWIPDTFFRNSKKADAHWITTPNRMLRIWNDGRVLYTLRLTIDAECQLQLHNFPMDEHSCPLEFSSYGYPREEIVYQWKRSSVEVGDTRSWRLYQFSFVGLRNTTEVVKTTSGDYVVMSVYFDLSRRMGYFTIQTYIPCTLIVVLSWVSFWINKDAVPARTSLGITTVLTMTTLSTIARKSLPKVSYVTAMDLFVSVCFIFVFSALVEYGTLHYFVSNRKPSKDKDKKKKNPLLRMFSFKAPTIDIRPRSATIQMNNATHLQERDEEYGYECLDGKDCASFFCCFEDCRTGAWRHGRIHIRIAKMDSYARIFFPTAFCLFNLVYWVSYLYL
Sequence of α5GABAARs (Q8BHJ7 32-463 limits assumed): as the sequence (Q8BHJ7 32-463 limits assumed) above
Sequence of α5GABAARs (P63080 26-473 partner): as the sequence (P63080 26-473 partner) above
Sequence of α5GABAARs (P22723 39-474): as the sequence (P22723 39-474) above

CCOC(=O)c1ncn2c1[C@@H]1CCCN1C(=O)c1cc(OC)ccc1-2 [L-655,708]
effect on memory deficit after isoflurane (in words) (α5GABAA receptors [1]): completely prevented memory deficits; also recorded: completely reversed the short-term memory deficit for contextual learning; also recorded: prevented the short-term memory deficit to the tone in mice trained 1 h after isoflurane; also recorded: had no effect on auditory recall in mice conditioned 24 h after exposure to isoflurane; also recorded: completely reversed by pretreatment with L-655,708; also recorded: did not reverse the long-term deficit in cued fear conditioning; also recorded: The impairment was prevented by pre-emptive treatment with L-655,708
effect on memory deficit after isoflurane (in words) (α5GABAA receptors [1]; listed as L-655-708): had no effect on freezing in the oxygen-treated mice
freezing score to context, short-term memory (α5GABAA receptors [1]; oxygen-treated mice): 80.1±6.4%
freezing score to context, short-term memory (α5GABAA receptors [1]; [9]): 75.5±8.6%
freezing score to context, short-term memory (α5GABAA receptors [1]; [10]): 81.9±5.6%
freezing score to auditory tone, short-term memory (α5GABAA receptors [1]; trained 1 h after isoflurane): 49.1+8.8%
freezing score to auditory tone, long-term memory (α5GABAA receptors [1]; trained 1 h after isoflurane): 41.7±7.3%
freezing score to context, long-term memory (α5GABAA receptors [1]; trained 1 h after isoflurane): 72.3±4.9%
freezing score to context, long-term memory (α5GABAA receptors [1]; trained 24 h after isoflurane): 75.2±8.3%
total number of visits to the middle area (Elevated plus maze; [11]): 17.3±7.0
total number of visits to the middle area (Elevated plus maze; 1 h O2): 19.5±8.5
total number of visits to the middle area (Elevated plus maze; [12]): 13.6±7.1
receptor occupancy of the α5GABAA receptor (α5GABAA receptors [2]): 64%
half-life ([3]; rat, in vivo): 30 min
time of peak ([3]; rat, in vivo): 0.25 h
brain versus plasma concentrations (in words) ([3]; subcutaneous injection): concentrations in the brain mimic those in the plasma
trace fear memory, freezing scores (in words) (α5GABAARs; L-655,708 1 mg/kg i.p. 30 minutes prior to training): demonstrated increased freezing scores
contextual fear memory, freezing score (in words) (α5GABAARs; etomidate or etomidate plus L-655,708 30 min prior to training): prevented the etomidate-induced memory deficit
occupancy of α1, α2 and α3 subunit-containing GABAA receptors [4]: 18%
memory performance of Gabra5−/− mice (in words) (α5GABAA receptors [5]): did not affect the memory performance of Gabra5−/− mice
discrimination ratio, short-term memory (α5GABAA receptors [5]; Gabra5−/− mice, L-655,708 0.70 mg/kg i.p. 10 min before isoflurane): 0.62±0.05
discrimination ratio, short-term memory (α5GABAA receptors [5]; Gabra5−/− mice, L-655,708 0.70 mg/kg i.p. 10 min before vehicle gas): 0.64±0.05
effect on isoflurane-induced recognition memory deficit (in words) (α5GABAA receptors [5]; L-655,708 0.35 mg/kg 24 h after isoflurane, 30 min before training): restored normal memory performance in groups that were exposed to isoflurane; also recorded: fully reversed short-term memory deficits; also recorded: completely reversed the deficit in recognition memory; also recorded: reverses memory deficits when administered 24 h after exposure to the anesthetic isoflurane; also recorded: fully reversed by L-655,708
effect on isoflurane-induced recognition memory deficit (in words) (α5GABAA receptors [5]; L-655,708 0.7 mg/kg 24 h after isoflurane, 30 min before training): failed to reverse the memory deficit in isoflurane-treated mice
prevention of recognition memory deficit (in words) (α5GABAA receptors [5]; L-655,708 0.7 mg/kg before isoflurane): preferred the novel object
discrimination ratio, short-term memory (α5GABAA receptors [5]; [13]): 0.54±0.05
discrimination ratio, short-term memory (α5GABAA receptors [5]; isoflurane + L-655,708 0.35 mg/kg i.p. 23.5 h after anesthesia, 30 min before training, n=11): 0.68±0.03
exploratory behavior during training (in words) (α5GABAA receptors [5]; mouse, in vivo): did not influence the amount of time that mice spent with both objects
time to self-right after the immobilizing dose of isoflurane [6]: 151 ± 27 s
effect on MAC of isoflurane (in words) ([6]; mouse, in vivo): did not change the MAC value for isoflurane
immobilizing dose (MAC value) of isoflurane [6]: 1.33±0.02

FC(F)OC(Cl)C(F)(F)F (stereo not drawn) [isoflurane]
mean freezing score, short-term contextual fear conditioning (α5GABAA receptors [1]; independent cohort of 14 mice, 24 h after isoflurane): 32.8%
freezing score to context, short-term memory (α5GABAA receptors [1]; [9]): 54.6±5.9%
freezing score to context, short-term memory (α5GABAA receptors [1]; [10]): 51.6±8.0%
freezing score to auditory tone, short-term memory (α5GABAA receptors [1]; trained 1 h after isoflurane): 35.7±6.43%
freezing score to auditory tone, short-term memory (α5GABAA receptors [1]; trained 24 h after isoflurane): 49.1+8.8%
freezing score to auditory tone, long-term memory (α5GABAA receptors [1]; trained 1 h after isoflurane): 21.8±23.1%
freezing score to context, long-term memory (α5GABAA receptors [1]; trained 1 h after isoflurane): 36.4±26.9%
freezing score to auditory tone, long-term memory (α5GABAA receptors [1]; trained 24 h after isoflurane): 41.2±31.2%
freezing score to context, long-term memory (α5GABAA receptors [1]; trained 24 h after isoflurane): 48.9±8.6%
time until isoflurane in expired gas is undetectable [7]: ≤ 7 min
total number of visits to the middle area (Elevated plus maze; [11]): 19.9±4.6
total number of visits to the middle area (Elevated plus maze; [12]): 18.1±5.3
anxiety in the elevated plus maze (in words) (Elevated plus maze; mouse, in vivo): neither isoflurane, nor L-655,708 had any effect on anxiety on their own
hypoxia (in words) ([8]; isoflurane 1 MAC in 30% O2 for 1 h or 5 min): Hypoxia did not occur
pCO2 ([8]; isoflurane 5 min): 48.6 ± 2.02 mmHg
pO2 ([8]; isoflurane 5 min): 142 ± 16 mmHg
pH ([8]; isoflurane 5 min): 7.28 ± 0.02
pCO2 ([8]; isoflurane 60 min): 54.2 ± 12.3 mmHg
pO2 ([8]; isoflurane 60 min): 193 ± 31 mmHg
pH ([8]; isoflurane 60 min): 7.23 ± 0.08
effect of the anesthetic on recognition memory, wild-type mice (in words) (α5GABAA receptors [5]): failed to recognize the familiar object and exhibited no preference for the novel object
memory performance of Gabra5−/− mice (in words) (α5GABAA receptors [5]): did not cause significant impairment of memory performance in Gabra5−/− mice
effect of the anesthetic on recognition memory, wild-type mice (in words) (α5GABAA receptors [5]; listed as Isoflurane): demonstrated normal working memory
time spent exploring both objects during training (α5GABAA receptors [5]; 72 h after isoflurane): 46.65 ± 6.57 s
discrimination ratio, short-term memory (α5GABAA receptors [5]; 72 h after isoflurane, n=10): 0.60±0.04
discrimination ratio, short-term memory (α5GABAA receptors [5]; Gabra5−/− mice, 24 h after isoflurane): 0.62±0.05
time by which short-term memory deficits resolved (α5GABAA receptors [5]; after isoflurane 1.3% 1 h): ≤ 72 h
discrimination ratio, short-term memory (α5GABAA receptors [5]; [13]): 0.54±0.04
discrimination ratio, short-term memory (α5GABAA receptors [5]; prevention experiment, wild-type, isoflurane + vehicle injection, n=11): 0.53±0.05
time spent exploring sample objects during training (α5GABAA receptors [5]; short-term memory experiment, 24 h after isoflurane): 62.3 ± 9.44 s
discrimination ratio, working memory (α5GABAA receptors [5]; tested 1 min after training, 24 h after isoflurane 1.3% 1 h, n=10): 0.67±0.04
discrimination ratio, short-term memory (α5GABAA receptors [5]; tested 1 h after training, 24 h after isoflurane, vehicle injection, wild-type, n=31): 0.51±0.03
time spent exploring both sample objects during training (α5GABAA receptors [5]; working memory experiment, 24 h after isoflurane): 49.28 ± 9.60 s
time to self-right after the immobilizing dose of isoflurane [6]: 153 ± 26 s
immobilizing dose (MAC value) of isoflurane [6]: 1.33±0.02
